Reference: ChEMBL document CHEMBL4689842, “EUbOPEN Chemogenomics Library wave 1” (2021)

Tests used:
Format in all cases: toxicity, cell-based
HEK-293T = assay: Incucyte cell viability with HEK293T; settings: human, 10 µM, compound concentration 10 uM
U2OS = assay: Incucyte cell viability with U2OS; settings: human, 10 µM, compound concentration 10 uM
Fibroblast = assay: Incucyte cell viability with human fibroblast; settings: 10 µM, compound concentration 10 uM
[1] = 0 h, replicate number 1, timepoint 0 hours
[2] = 6 h, replicate number 1, timepoint 6 hours
[3] = 12 h, replicate number 1, timepoint 12 hours
[4] = 12 h, replicate number 2, timepoint 12 hours
[5] = 18 h, replicate number 1, timepoint 18 hours
[6] = 18 h, replicate number 2, timepoint 18 hours
[7] = 24 h, replicate number 1, timepoint 24 hours
[8] = 24 h, replicate number 2, timepoint 24 hours
[9] = 6 h, replicate number 2, timepoint 6 hours
[10] = 0 h, replicate number 2, timepoint 0 hours
Note: filed as whole numbers so only -1 and 0 and 1 occur.

Row | Compound | Growth Rate (HEK-293T; [1]) | Growth Rate (HEK-293T; [2]) | Growth Rate (HEK-293T; [3]) | Growth Rate (HEK-293T; [5]) | Growth Rate (HEK-293T; [7]) | Growth Rate (U2OS; [1]) | Growth Rate (U2OS; [9]) | Growth Rate (U2OS; [3]) | Growth Rate (U2OS; [5]) | Growth Rate (U2OS; [7]) | Growth Rate (Fibroblast; [1]) | Growth Rate (Fibroblast; [3]) | Growth Rate (Fibroblast; [5]) | Growth Rate (Fibroblast; [7]) | Growth Rate (U2OS; [10]) | Growth Rate (Fibroblast; [6]) | Growth Rate (U2OS; [2]) | Growth Rate (U2OS; [8]) | Growth Rate (Fibroblast; [2]) | Growth Rate (Fibroblast; [9]) | further results
1 | CN1CC(=O)N=C1NC(=O)Nc1cccc(Cl)c1 [FENOBAM ANHYDROUS] | 0 | 1 | 1 | 1 | 1 | 0 | 1 | 0 | 1 | 1 | 0 | 1 | 1 | 1 | – | – | – | – | – | – | Growth Rate (HEK-293T; [4]): 0; Growth Rate (HEK-293T; [6]): 0; Growth Rate (HEK-293T; [8]): 0; Growth Rate (U2OS; [4]): 1
2 | CN(C)CCCn1cc(C2=C(c3c[nH]c4ccccc34)C(=O)NC2=O)c2ccccc21 [GF-109203] | 0 | 0 | 0 | 0 | 0 | – | – | 1 | 0 | 0 | 0 | 1 | 0 | 0 | 0 | 1 | – | – | – | – | Growth Rate (HEK-293T; [10]): 1
3 | COc1ccc(COc2ccc(Cc3cnc(N)nc3N)cc2OC)cc1 [GW632580X] | – | 0 | 0 | 0 | 0 | 0 | – | 1 | 1 | 1 | 1 | 1 | 1 | 1 | – | 0 | 0 | 0 | 1 | 0 | Growth Rate (U2OS; [4]): 0; Growth Rate (U2OS; [6]): 0; Growth Rate (Fibroblast; [4]): 0; Growth Rate (Fibroblast; [8]): 0
4 | N#Cc1ccccc1OCC(O)CNCCNC(=O)Nc1ccccc1 (centres undefined) [ICI-89406] | 1 | 0 | 0 | 1 | 1 | 0 | 0 | 0 | 0 | 1 | 0 | 0 | 0 | 0 | – | – | 1 | 0 | 0 | – | Growth Rate (HEK-293T; [10]): 0; Growth Rate (HEK-293T; [4]): 1
5 | Cc1cccc(NC(=O)N[C@@H]2N=C(c3ccccc3)c3ccccc3N(C)C2=O)c1 [L-365260] | 0 | 0 | 0 | 0 | 0 | 0 | – | 1 | 0 | 0 | 0 | 1 | 0 | 1 | 1 | – | 0 | 1 | – | – | Growth Rate (U2OS; [4]): 0
6 | CCC(=O)N1CC[C@H](Nc2ncnc3c2CN(c2cnc(OC)c(C(F)(F)F)c2)CC3)C1 [LENIOLISIB] | – | – | – | – | – | 0 | – | 0 | 0 | 0 | – | 0 | 0 | 0 | 1 | – | 0 | – | 0 | – | Growth Rate (HEK-293T; [9]): 0; Growth Rate (HEK-293T; [4]): 1; Growth Rate (HEK-293T; [8]): 1; Growth Rate (U2OS; [4]): 1; Growth Rate (Fibroblast; [10]): 1
7 | CCCCc1nc(Cl)c(CO)n1Cc1ccc(-c2ccccc2-c2nn[nH]n2)cc1 [LOSARTAN] | 0 | 1 | 1 | 1 | 1 | 0 | 1 | 1 | 0 | 0 | 0 | 1 | 1 | 1 | – | 0 | 0 | 1 | 1 | 0 | Growth Rate (HEK-293T; [9]): 0; Growth Rate (HEK-293T; [4]): 0; Growth Rate (HEK-293T; [6]): 0; Growth Rate (HEK-293T; [8]): 0; Growth Rate (U2OS; [6]): 1; Growth Rate (Fibroblast; [4]): 0; Growth Rate (Fibroblast; [8]): 0
8 | O=C(NOC[C@H](O)CO)c1ccc(F)c(F)c1Nc1ccc(I)cc1F [MIRDAMETINIB] | 0 | – | – | – | – | – | – | 0 | 0 | 0 | – | 1 | 1 | 1 | 0 | – | 0 | – | 1 | 0 | Growth Rate (HEK-293T; [10]): 1; Growth Rate (HEK-293T; [8]): 1; Growth Rate (Fibroblast; [10]): 0
9 | CO[C@@H]1COCC[C@@H]1N[C@@H]1CC[C@@](C(=O)N2CCc3ncc(C(F)(F)F)cc3C2)(C(C)C)C1 [MK-0812] | 0 | 1 | 1 | 1 | 1 | 0 | 0 | 1 | 1 | 1 | 0 | 1 | 1 | 1 | – | 0 | – | – | 1 | 0 | Growth Rate (HEK-293T; [9]): 0; Growth Rate (Fibroblast; [10]): 1; Growth Rate (Fibroblast; [8]): 0
10 | CC1(C)CNc2cc(NC(=O)c3cccnc3NCc3ccncc3)ccc21.O=P(O)(O)O.O=P(O)(O)O [MOTESANIB DIPHOSPHATE] | 0 | – | – | – | – | 0 | 0 | 1 | 1 | 1 | 0 | 1 | 1 | 1 | 1 | 0 | 1 | 0 | – | 0 | Growth Rate (Fibroblast; [4]): 0; Growth Rate (Fibroblast; [8]): 0
11 | N#CC1(c2ccccn2)CCN(Cc2cc(C(=O)N3CCCC3)c(=O)n3ccccc23)CC1 [MSD-M1PAM-NC] | 1 | 1 | 0 | 0 | 0 | – | – | 0 | 0 | 0 | 0 | 1 | 1 | 0 | 0 | 0 | – | 1 | – | 1 | Growth Rate (HEK-293T; [10]): 0; Growth Rate (HEK-293T; [9]): 0
12 | CCCc1c(-c2ccc(O)cc2)nn(-c2ccc(O)cc2)c1-c1ccc(O)cc1 [PROPYLPYRAZOLETRIOL] | 0 | 1 | 1 | 1 | 0 | 1 | 1 | 1 | 0 | 1 | 0 | 0 | 0 | 0 | 0 | 1 | – | – | 0 | – | Growth Rate (HEK-293T; [8]): 1; Growth Rate (U2OS; [6]): 1; Growth Rate (Fibroblast; [4]): 1; Growth Rate (Fibroblast; [8]): 1
13 | COc1cccc(OC)c1-c1cc(C(=O)NC2(C(=O)O)C3CC4CC(C3)CC2C4)nn1-c1ccnc2cc(Cl)ccc12 (centres undefined) [REMINERTANT] | 0 | 0 | 0 | 0 | 0 | 1 | 1 | 1 | 0 | 0 | 0 | 1 | 1 | 1 | – | 0 | – | 1 | – | 1 | Growth Rate (HEK-293T; [9]): 1; Growth Rate (HEK-293T; [4]): 1; Growth Rate (U2OS; [6]): 1; Growth Rate (Fibroblast; [4]): 0; Growth Rate (Fibroblast; [8]): 0
14 | CO[C@H]1/C=C/O[C@@]2(C)Oc3c(C)c(O)c4c(O)c(c(/C=N/N5CCN(C)CC5)c(O)c4c3C2=O)NC(=O)/C(C)=C\C=C\[C@H](C)[C@H](O)[C@@H](C)[C@@H](O)[C@@H](C)[C@H](OC(C)=O)[C@@H]1C [RIFAMPIN] | 0 | 1 | 1 | 1 | 1 | 0 | 1 | 1 | 1 | 0 | 0 | 0 | 0 | 0 | – | – | – | 1 | 0 | – | –
